Measurements from ChEMBL document CHEMBL2203093, “EC144 is a potent inhibitor of the heat shock protein 90” (J Med Chem, 2012).
Values belong to the compound of their own block, whether it stands above or below them.

Legend:
[1] = Tmax in DBA1 mouse brain at 5 mg/kg, po; format: ADME, organism-based; set-up: dose 5 mg/kg, route oral
[2] = Intrinsic clearance in mouse liver microsomes; format: ADME, Microsome; settings: read-out: CLH
[3] = Half life in DBA1 mouse brain at 5 mg/kg, po; format: ADME, organism-based; set-up: dose 5 mg/kg, route oral
[4] = Cmax in DBA1 mouse plasma at 5 mg/kg, po; format: ADME, organism-based; set-up: dose 5 mg/kg, route oral
NCI-N87 = assay: Drug uptake in human NCI-N87 cells xenografted in mouse at 6 to 12 mg/kg, po administered as a single dose at 6 to 24 hrs; format: ADME, organism-based; set-up: route oral; settings: in vivo
[5] = Tmax in CD-1 mouse at 25 mg/kg, po; format: ADME, organism-based; set-up: dose 25 mg/kg, route oral; settings: in vivo
[6] = AUC (infinity) in DBA1 mouse spleen at 5 mg/kg, po; format: ADME, organism-based; set-up: dose 5 mg/kg, route oral, time infinity
[7] = Apparent permeability from apical to basolateral side of human Caco2 cells; format: ADME, cell-based; settings: Caco-2
[8] = AUC (infinity) in DBA1 mouse plasma at 5 mg/kg, po; format: ADME, organism-based; set-up: dose 5 mg/kg, route oral, time infinity
[9] = Half life in DBA1 mouse plasma at 5 mg/kg, po; format: ADME, organism-based; set-up: dose 5 mg/kg, route oral
Spleen = assay: Drug uptake in human NCI-N87 cell xenografted mouse spleen at 6 to 12 mg/kg, po administered as a single dose at 6 to 24 hrs; format: ADME, organism-based; set-up: route oral; settings: in vivo
[10] = Cmax in DBA1 mouse spleen at 5 mg/kg, po; format: ADME, organism-based; set-up: dose 5 mg/kg, route oral
Brain = assay: Drug uptake in human NCI-N87 cell xenografted mouse brain at 6 to 12 mg/kg, po administered as a single dose at 6 to 24 hrs; format: ADME, organism-based; set-up: route oral; settings: in vivo
[11] = Half life in DBA1 mouse lymph nodes at 5 mg/kg, po; format: ADME, organism-based, Lymph node; set-up: dose 5 mg/kg, route oral
[12] = Toxicity in po dosed human N87 cell xenografted athymic mouse administered as qd for 5 days per week for 4 weeks; format: organism-based, NCI-N87; settings: in vivo
[13] = Cmax in DBA1 mouse lymph nodes at 5 mg/kg, po; format: ADME, organism-based, Lymph node; set-up: dose 5 mg/kg, route oral
[14] = Half life in DBA1 mouse spleen at 5 mg/kg, po; format: ADME, organism-based; set-up: dose 5 mg/kg, route oral
[15] = Half life in CD-1 mouse at 25 mg/kg, po; format: ADME, organism-based; set-up: dose 25 mg/kg, route oral; settings: in vivo
[16] = Initial Cmax in CD-1 mouse at 25 mg/kg, po; format: ADME, organism-based; set-up: dose 25 mg/kg, route oral; settings: in vivo
[17] = Tmax in DBA1 mouse plasma at 5 mg/kg, po; format: ADME, organism-based; set-up: dose 5 mg/kg, route oral
[18] = AUC in CD-1 mouse at 25 mg/kg, po; format: ADME, organism-based; set-up: dose 25 mg/kg, route oral; settings: plasma
Mus musculus [19] = assay: Dose normalized AUC in CD-1 mouse at 25 mg/kg, po; format: ADME, organism-based; set-up: dose 25 mg/kg, route oral; settings: in vivo
[20] = Toxicity in po dosed mouse administered as a single dose; format: organism-based; settings: in vivo
[21] = Intrinsic clearance in human liver microsomes; format: ADME, Microsome; settings: read-out: CLH
[22] = AUC (infinity) in DBA1 mouse lymph nodes at 5 mg/kg, po; format: ADME, organism-based, Lymph node; set-up: time infinity, dose 5 mg/kg, route oral
[23] = Tmax in DBA1 mouse lymph nodes at 5 mg/kg, po; format: ADME, organism-based, Lymph node; set-up: dose 5 mg/kg, route oral
[24] = Cmax in DBA1 mouse brain at 5 mg/kg, po; format: ADME, organism-based; set-up: dose 5 mg/kg, route oral
[25] = Intrinsic clearance in rat liver microsomes; format: ADME, Microsome; settings: read-out: CLH
Serum = assay: Drug uptake in human NCI-N87 cell xenografted mouse serum at 6 to 12 mg/kg, po administered as a single dose at 6 to 24 hrs; format: ADME, organism-based; set-up: route oral; settings: in vivo
[26] = AUC (infinity) in DBA1 mouse brain at 5 mg/kg, po; format: ADME, organism-based; set-up: dose 5 mg/kg, route oral, time infinity
[27] = Tmax in CD-1 mouse at 100 mg/kg, po; format: ADME, organism-based; set-up: dose 100 mg/kg, route oral; settings: in vivo
[28] = Initial Cmax in CD-1 mouse at 100 mg/kg, po; format: ADME, organism-based; set-up: dose 100 mg/kg, route oral; settings: in vivo
Mus musculus [29] = assay: Dose normalized AUC in CD-1 mouse at 100 mg/kg, po; format: ADME, organism-based; set-up: dose 100 mg/kg, route oral; settings: in vivo
[30] = Half life in CD-1 mouse at 5 mg/kg, iv; format: ADME, organism-based; set-up: dose 5 mg/kg, route intravenous; settings: in vivo
[31] = AUC in CD-1 mouse at 5 mg/kg, iv; format: ADME, organism-based; set-up: dose 5 mg/kg, route intravenous; settings: plasma
[32] = Initial Cmax in CD-1 mouse at 5 mg/kg, iv; format: ADME, organism-based; set-up: dose 5 mg/kg, route intravenous; settings: in vivo
Mus musculus [33] = assay: Dose normalized AUC in CD-1 mouse at 5 mg/kg, iv; format: ADME, organism-based; set-up: dose 5 mg/kg, route intravenous; settings: in vivo

Compound: COc1c(C)cnc(Cn2cc(C#CCC(C)(C)O)c3c(Cl)nc(N)nc32)c1C
Tmax [1]: 0.5 h | CLint scaled [2]: 727 mL/min/kg | half-life [3]: 2.1 h | Cmax [4]: 835 ng/mL | Drug uptake (NCI-N87): Active | Tmax [5]: 0.5 h | AUC(0-inf) [6]: 8160 ng·h/mL | Papp A→B [7]: 34.7 ×10⁻⁶ cm/s | AUC(0-inf) [8]: 2120 ng·h/mL | half-life [9]: 1.2 h | Drug uptake (Spleen): Active | Cmax [10]: 1890 ng/mL | Drug uptake (Brain): Active | half-life [11]: 1.6 h | MTD at 4 weeks [12]: 10 mg/kg | Cmax [13]: 2140 ng/mL | half-life [14]: 2 h | half-life [15]: 1.5 h | Cmax [16]: 1560 ng/mL | Tmax [17]: 4.98 min | AUC [18]: 4420 ng·h/mL | AUC/dose (Mus musculus [19]): 177 ng·h/mL/mg/kg | MTD [20]: 30 mg/kg | CLint scaled [21]: 119 mL/min/kg | AUC(0-inf) [22]: 5190 ng·h/mL | Tmax [23]: 1 h | Cmax [24]: 1450 ng/mL | CLint scaled [25]: 276 mL/min/kg | Drug uptake (Serum): Active | AUC(0-inf) [26]: 4710 ng·h/mL

Compound: COc1c(C)cnc(Cn2cnc3c(Cl)nc(N)nc32)c1C [BIIB021]
Tmax [27]: 4.98 min | Cmax [28]: 10000 ng/mL | Papp A→B [7]: 20 ×10⁻⁶ cm/s | AUC/dose (Mus musculus [29]): 48 ng·h/mL/mg/kg

half-life [30]: 6.6 h | AUC [31]: 2410 ng·h/mL | Papp A→B [7]: 1.9 ×10⁻⁶ cm/s | Cmax [32]: 2180 ng/mL | AUC/dose (Mus musculus [33]): 481 ng·h/mL/mg/kg | CLint scaled [21]: 39 mL/min/kg | CLint scaled [25]: 219 mL/min/kg
Compound: CCNC(=O)c1noc(-c2cc(C(C)C)c(O)cc2O)c1-c1ccc(CN2CCOCC2)cc1 [LUMINESPIB]

CLint scaled [2]: 301 mL/min/kg | Tmax [5]: 1 h | Papp A→B [7]: 1.1 ×10⁻⁶ cm/s | half-life [15]: 2.9 h | Cmax [16]: 1720 ng/mL | AUC [18]: 8520 ng·h/mL | AUC/dose (Mus musculus [19]): 341 ng·h/mL/mg/kg | CLint scaled [21]: 54 mL/min/kg | CLint scaled [25]: 54 mL/min/kg
Compound: CC1(C)CC(=O)c2c(C(F)(F)F)nn(-c3ccc(C(N)=O)c(N[C@H]4CC[C@H](O)CC4)c3)c2C1 [SNX-2112]

Compound: C=CCNC1=C2C[C@@H](C)C[C@H](OC)[C@H](O)[C@@H](C)/C=C(\C)[C@H](OC(N)=O)[C@@H](OC)/C=C\C=C(/C)C(=O)NC(=CC1=O)C2=O [TANESPIMYCIN]
MTD [20]: 60 mg/kg
